Patent publication US20250101027A1, “ORGANIC COMPOUND, LIGHT-EMITTING DEVICE, LIGHT-EMITTING APPARATUS, AND ELECTRONIC APPLIANCE” (SEMICONDUCTOR ENERGY LABORATORY CO., LTD., priority 2023, published 2025)
Converted amounts (≈) assume the structure as drawn.

Assay: Solubility test in water by LC-MS analysis
Assay type: physicochemical
Settings: for peak area value derived from the compound through the LC-MS analysis (solubility test in water): ultrasonic waves five minutes, filtrate diluted five times with acetonitrile, one atmosphere, room temperature
Method: Next, a solubility test of PrdP2Phen was performed. Note that the solubility test was conducted at a pressure of one atmosphere, at room temperature (RT).
In the LC-MS analysis, liquid chromatography (LC) separation was carried out with ACQUITY UPLC manufactured by Waters Corporation, and MS analysis (mass spectrometry) was carried out with Xevo G2 Tof MS manufactured by Waters Corporation. Acquity UPLC BEH C8 (2.1×100 mm, 1.7 μm) was used as a column for the LC separation. Acetonitrile was used for Mobile Phase A and a 0.1% aqueous solution of formic acid was used for Mobile Phase B. The injection amount of the sample was 5.0 μL. Note that in the analysis, the wavelength of a photodiode array detector was set to 263 nm±1 nm.
In a 5-mL sample bottle, I mg of PrdP2Phen was put and 1 mL of water was added thereto. This mixture was irradiated with ultrasonic waves for five minutes. This mixture was filtered through a membrane filter to remove the solid, and the resulting filtrate was diluted by five times with acetonitrile. The obtained solution was subjected to LC-MS analysis.
In a 5-mL sample bottle, 1 mg of Pyrrd-Phen was put and 2 mL of toluene was added thereto. This mixture was irradiated with ultrasonic waves for five minutes. After it was confirmed that the solid was completely dissolved, this solution was diluted by 5 times with acetonitrile, whereby the concentration of the solution was adjusted to 100 mg/L. This solution was diluted with a 3:7 toluene-acetonitrile mixed solvent, whereby a solution with a concentration of 20 mg/L, a solution with a concentration of 10 mg/L, and a solution with a concentration of 5 mg/L were prepared. The prepared solutions were subjected to LC-MS analysis, and the peak area values derived from Pyrrd-Phen, which were obtained at the respective solution concentrations, were used to form calibration curves.
Next, the water solubility of Pyrrd-Phen was measured.
In a 5-mL sample bottle, 1 mg of Pyrrd-Phen was put and 1 mL of water was added thereto. This mixture was irradiated with ultrasonic waves for five minutes. This mixture was filtered through a membrane filter to remove the solid, and the resulting filtrate was diluted by five times with acetonitrile. The obtained solution was subjected to LC-MS analysis.
Next, a solubility test of Hid-PrdPPhen was performed. Note that the solubility test was conducted at a pressure of one atmosphere at room temperature (RT).
In the LC-MS analysis, liquid chromatography (LC) separation was carried out with ACQUITY UPLC manufactured by Waters Corporation, and MS analysis (mass spectrometry) was carried out with Xevo G2 Tof MS manufactured by Waters Corporation. Acquity UPLC BEH C8 (2.1×100 mm, 1.7 μm) was used as a column for the LC separation. […]

[1] = 1 mg in 1 mL of water, filtered

| SMILES | peak area value derived from the compound through the LC-MS analysis (solubility test in water) [1] | water solubility (in words) (conclusion from LC-MS solubility test) | solubility at 5 min (thermodynamic from solid, from calibration curve and LC-MS signal intensity, 1 mg in 1 mL of water, sonicated, filtered) |
| --- | --- | --- | --- |
| c1cc(-c2ccc(N3CCCC3)cc2)c2ccc3c(N4CC5CCCCC5C4)ccnc3c2n1 (stereo not shown) [Hid-PrdPPhen, 4-(2,3,3a,4,5,6,7,7a-octahydro-1H-isoindol-2-yl)-7-[4-(I-pyrrolidinyl)phenyl]-1,10-phenanthroline] | failed to be obtained | – | – |
| c1cc(-c2ccc(N3CCCC3)cc2)c2ccc3c(-c4ccc(N5CCCC5)cc4)ccnc3c2n1 [PrdP2Phen, 4,7-bis[4-(1-pyrrolidinyl)phenyl]-1,10-phenanthroline] | failed to be obtained | – | – |
| c1cc(N2CCCC2)c2ccc3c(N4CCCC4)ccnc3c2n1 [Pyrrd-Phen, 4,7-di-1-pyrrolidinyl-1,10-phenanthroline] | – | high water solubility | 59 µg/mL (≈ 185 µM) |
